experiment: gradient 5% acetonitrile 3 min, to 50% in 2 min, to 85% in 15 min, held 3 min, 100 µL/min; conditions: column: Zorbax Extend-C18 2.1 x 50 mm; eluents: water / acetonitrile, 0.1% formic acid
Outline: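 Using water and acetonitrile that each contained 0.1% formic acid, mixtures of ~100 pure standards were separated at 100 μL/min on a Zorbax Extend-C18 column (2.1 × 50 mm, 1.8 μm). The HPLC fed a quadrupole time-of-flight mass spectrometer working in positive and negative ionization mode, with dead and dwell volumes of 40 μL and 900 μL. Data were acquired over 3 months. Retention time was read from computationally picked adduct peaks after manual inspection of each.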

| Compound | RP-LC retention time [s] |
| --- | --- |
| CC1=C(c2ccc(C)cc2)S(=O)(=O)N=C1N1CCCN(C(=O)NCC(C)C)CC1 | 822 |
| O=S1(=O)N=CN(c2ccc(F)cc2)c2ncccc21 | 738 |
| COc1ccc2oc(-c3noc(CNC(C)=O)n3)c(C)c2c1 | 750 |
| COc1ccc(Br)c(-c2nnc(C)o2)c1 | 797 |
| COc1ccc(NC(=O)CN2C(=O)NC3(CCCCC3)C2=O)cc1 | 723 |
| O=C(C1CCN(c2cnc3nccnc3c2)CC1)N1CCCCC1 | 648 |
| CS(=O)(=O)N1CCCC(C(=O)Nc2nccs2)C1 (centres undefined) | 627 |
| COc1ccc(CNc2ccc(-c3nc(-c4ccc(F)cc4)no3)cn2)cc1 | 1220 |
| CCCOc1ccc(CN(C(=O)Cc2coc3ccc(C)cc23)C2CCS(=O)(=O)C2)cc1 (centres undefined) | 1130 |
| O=C(Nc1ccc(-c2nc3ccccc3s2)cc1)c1cc(=O)c2ccccc2o1 | 1030 |
| O=C(Nc1ccc2c(c1)OCCO2)N1CCC2(CC1)CC(OCc1ccccc1)CCO2 (centres undefined) | 914 |
| CNC(=O)C1CN(C(=O)c2ccccc2Cl)CC12CCCC2 (centres undefined) | 665 |
| COc1ccc(-c2nc3ccc(Cl)cn3c2Nc2ccc3c(c2)OCCO3)cc1 | 750 |
| CC(C)n1cnc2c(C(=O)N[C@H]3CN4CCC3CC4)cc(Cl)cc21 | 692 |
| COCc1cc(=O)n(CC(=O)NCc2ccc(F)cc2)c(N)n1 | 583 |
| CCOC(=O)c1[nH]c(C)c(CCC(=O)N2CCC(C(=O)N3CCCC3)CC2)c1C | 687 |
| COc1ccc(OCc2nnc3sc(-c4ccncc4)nn23)cc1 | 710 |
| Cc1ccc(C2(C)NC(=O)NC2=O)cc1 (centres undefined) | 604 |
| COCc1cc(=O)n(CC(=O)Nc2cc(C)cc(C)c2)c(N2CCOCC2)n1 | 893 |

| Compound | RP-LC retention time [s] |
| --- | --- |
| COc1cccc(NC(=O)Cn2nc3c(Oc4ccc(Cl)cc4)nccn3c2=O)c1 | 877 |
| Cc1ccc(C)c(S(=O)(=O)N2[C@H]3CC[C@@H]2c2cnc(-c4ccccc4)nc2C3)c1 | 1230 |
| Cc1ccc(-n2ccn3cc(-c4ccc(F)cc4F)nc3c2=O)cc1Cl | 1000 |
| O=C(CSc1ncccc1-c1noc(C2CCC2)n1)N1CCCCC1 | 979 |
| Cc1ccc(S(=O)(=O)N2C[C@@H](F)C[C@H]2C(=O)N2CCCCC2)c(C)c1 | 874 |
| Cc1cc(C(=O)N2CCOCC2)n(CC(=O)NCc2ccco2)n1 | 576 |
| O=C(CCc1csc(NC(=O)c2ccc(F)cc2)n1)Nc1ccc(-n2cnnn2)cc1 | 741 |
| O=C(c1cn2cc(Cl)ccc2n1)N1CCCCCC1 | 718 |
| O=C(CN1CCCc2nc(C3CC3)ncc2C1=O)NC1CCCC1 | 673 |
| O=C(NC1CCCCCC1)C1CCc2sc(C(=O)N3CCOCC3)cc2C1 (centres undefined) | 789 |
| CCOC(=O)C1=CN(C)S(=O)(=O)N=C1C | 695 |
| CN(C)c1ccc(C(CNC(=O)c2ccc(Br)o2)N2CCCC2)cc1 (centres undefined) | 572 |
| COc1cccc(CNC(=O)Cn2nc3cc(-c4ccncc4)nc(C)n3c2=O)c1 | 640 |
| COc1ccc(-c2noc(C3CCCN3C(=O)Nc3ccc(Cl)cc3)n2)cc1 (centres undefined) | 920 |
| COc1cc(OC)cc(-c2noc(Cn3nc(-c4ccc(C)cc4)ccc3=O)n2)c1 | 1090 |
| CC1CCN(C(=O)CSCC(=O)Nc2nc(-c3ccc4c(c3)OCO4)cs2)CC1 | 890 |
| CCc1ccc(C2=C(C)C(N3CCCN(C(=O)NC(C)CC)CC3)=NS2(=O)=O)cc1 (centres undefined) | 866 |
| CCOC(=O)c1c(C)oc2nc(C)nc(N3CCc4cc(OC)c(OC)cc4C3C)c12 (centres undefined) | 1060 |
| Cc1noc(CN2CCN(C3CCN(Cc4cc(Cl)ccc4F)C3)C2=O)n1 (centres undefined) | 713 |

Second part, the compound after the results:

| RP-LC retention time [s] | Compound |
| --- | --- |
| 1080 | O=S(=O)(Cc1ccccc1)N1CCC2(CC1)CC(OCc1ccccc1)CCO2 (centres undefined) |
| 1050 | Cc1nn(-c2ccccc2)c(C)c1S(=O)(=O)N1CCC(C(=O)NC2CCCCCCC2)CC1 |
| 814 | O=C(NCc1csc(-c2ccccc2)n1)C1CCN(C(=O)c2ccc(F)c(F)c2)CC1 |
| 904 | Cc1nc(-c2ccccc2OC2CN(S(=O)(=O)c3c(C)noc3C)C2)no1 |
| 774 | COc1ccc2nc(OC3CCN(C(=O)c4ccc(S(C)(=O)=O)cc4)CC3)sc2c1 |
| 968 | Cc1cc(C)cc(NC(=O)CN2C(=O)C(C)(C)c3ccccc32)c1 |
| 730 | CCOC(=O)C1=C(CN2CCN(c3ccccc3F)CC2)NC(=O)NC1c1cccc(OC)c1OC (centres undefined) |
| 1000 | Cc1ccc(C(C)C)c(OCC(=O)Nc2ccc(S(=O)(=O)Nc3cc(C)on3)cc2)c1 |
| 676 | Cc1nc2cc(NC(=O)c3ccc(N4CCOCC4)nn3)ccc2s1 |
| 968 | CCOC(=O)c1sc2ccccc2c1S(=O)(=O)Nc1ccc2c(c1)OCO2 |
| 760 | COc1ccc(-c2noc(-c3cccnc3N3CCN(Cc4ccccc4)CC3)n2)cc1 |
| 702 | CC(C)NC(=O)Cn1c2ccccc2n2c(=O)cc(-c3ccc(F)cc3)nc12 |
| 1020 | CCN1C(=O)c2cc(S(=O)(=O)NCc3ccccc3C)ccc2Oc2cccnc21 |
| 928 | Cc1ccccc1Cn1c(CN2CCC(C(=O)NCCC3=CCCCC3)CC2)cc2ccccc21 |
| 838 | CC(C)(C)c1csc(NC(=O)C2CC(=O)N(c3n[nH]c4cccc(F)c34)C2)n1 (centres undefined) |
| 750 | CC(C)S(=O)(=O)c1ccc(CC(=O)N2CCCC(c3nnc(C(F)(F)F)o3)C2)cc1 (centres undefined) |
| 768 | O=C(NC1CCCC1)c1ccc(CN2CCN(Cc3ccc(F)cc3)C(=O)C2=O)cc1 |
| 671 | CC(=O)N1CCc2cc(N3CC(C(=O)NCc4ccccc4)CC3=O)ccc21 (centres undefined) |
| 601 | CN(C)C[C@@H]1CN(c2ncccn2)C[C@H]1NS(=O)(=O)c1cccc(C#N)c1 |
| 672 | CCC(C)NC(=O)N1CCN(Cc2nc3cccnc3n2-c2cc(C)cc(C)c2)CC1 (centres undefined) |
| 721 | CCn1cc(CCNC(=O)Cc2ccccc2C)c2cccnc21 |
| 826 | Cc1cccc(S(=O)(=O)N2CCC(c3nc(C(=O)N(C)C)c(C)o3)CC2)c1 |
| 873 | COc1cccc(Cn2nc3n(CCC(=O)NC4CCCC4)c(=O)c4ccccc4n3c2=O)c1 |
| 975 | COC(=O)c1ccc2c(=O)n(-c3ccc(Cl)cc3)c(N3CCOCC3)nc2c1 |
| 794 | Cc1cccc(NC(=O)Nc2nc(C(=O)NCc3cccs3)cs2)c1 |
| 644 | COc1ccc(-c2ncc3c(n2)CCN(C(=O)Nc2ccc(C)cc2C)C3)cc1 |

| RP-LC retention time [s] | Compound |
| --- | --- |
| 1030 | O=C(Cn1cccc1-c1nc(-c2ccc(Cl)cc2)cs1)NCC1CCCO1 (centres undefined) |
| 805 | CCNc1ncnc2sc3c(c12)CCN(S(=O)(=O)c1ccccc1)C3 |
| 1070 | CCc1nc(-c2csc(S(=O)(=O)N3CCC(C(=O)NC4CCCCCCC4)CC3)c2)no1 |
| 681 | COc1ccc(NC(=O)Cn2cnc3nc(N4CCCC(C(=O)NC5CC5)C4)sc3c2=O)cc1 (centres undefined) |
| 1010 | CCn1cc(C(=O)O)c(=O)c2ccc(Cc3ccccc3)nc21 |
| 768 | Cc1cccc(-c2nc3nc(C)cc(N4CCCC4)n3n2)c1 |
| 965 | COc1ccc(OC)c(NC(=O)Cn2nc3cc(-c4ccccc4)nc(C)n3c2=O)c1 |
| 844 | COc1ccc(S(=O)(=O)Nc2nc(C(=O)Nc3cccc(Cl)c3)cs2)cc1 |
| 980 | O=c1[nH]c(-c2ccccc2)nc2sc(-c3ccccc3)cc12 |
| 1030 | Cc1cccc2c(=O)n(C3CCN(S(=O)(=O)c4ccc(Cl)cc4)CC3)cnc12 |
| 796 | CCc1onc(C)c1C1CCCN1C(=O)Nc1ccc(OC)cc1OC (centres undefined) |
| 811 | COc1ccc(N2CCN(C(=O)C3c4ccccc4CCN3C(=O)C3CC3)CC2)cc1 (centres undefined) |
| 880 | CCc1cccc(C)c1NC(=O)C1CCN(S(C)(=O)=O)c2ccccc2O1 (centres undefined) |
| 832 | COc1ccc(S(=O)(=O)Nc2ccc3c(c2)CCC(=O)N3CC(C)C)cc1 |
| 821 | COc1ccc(NC(=O)C2CCN(S(=O)(=O)c3ccc4[nH]c(=O)sc4c3)CC2)cc1Cl |
| 571 | COc1cccc2cc(C(=O)N3CCN(CCn4cccn4)CC3)oc12 |
| 858 | CC1(C(=O)NCc2ccccc2)CN(S(C)(=O)=O)CC(=O)N1Cc1ccc(Cl)cc1 (centres undefined) |
| 706 | N#Cc1cccc(NC(=O)C2CCN(S(=O)(=O)c3ccc4[nH]c(=O)ccc4c3)CC2)c1 |
| 1370 | CC1CCN(S(=O)(=O)c2cccnc2Nc2ccc(Cl)cc2)CC1 |
| 573 | CC(=O)Nc1nc2c(s1)CN(CC(=O)Nc1ccc(F)c(Cl)c1)CC2 |
| 815 | Cc1nc2ncnn2c(C)c1CCC(=O)N1CCC(Cc2ccccc2)CC1 |
| 628 | CN1C(=O)c2cccn2CC1CNC(=O)c1cccs1 (centres undefined) |
| 779 | Fc1ccccc1N1CCN(c2ncc3c(n2)CCN(Cc2ccc4c(c2)OCCO4)C3)CC1 |
| 776 | Cc1cc(C(=O)NCC(O)(c2ccccc2)C(F)(F)F)no1 (centres undefined) |
| 766 | CCOc1cccc(CNC(=O)CCc2nnc3c4cc(-c5ccccc5)nn4ccn23)c1 |

From the METLIN SMRT retention time set (Domingo-Almenara et al. 2019)
